Measurements reported in PMC9841576, “Characterisation of C101248: A novel selective THIK-1 channel inhibitor for the modulation of microglial NLRP3-inflammasome” (Neuropharmacology, 2023).
Like-named read-outs stand apart in the source and are kept apart here.

Columns and labels:
Syk (h) = Syk (h) (Homo sapiens, UniProt P43405); experiment: Kinase selectivity; type: biochemical
Text: (§1) Supplement mmc1.docx, table 1 | column: IC50 (μM)

PKA (h) = PKA (h) (Homo sapiens, UniProt P17612); experiment: Kinase selectivity; type: biochemical
Text: as §1

ROCK-2 (h) = ROCK-2 (h) (Homo sapiens, UniProt O75116); experiment: Kinase selectivity; type: biochemical
Text: as §1

Lck (h) = Lck (h) (Homo sapiens, UniProt P06239); experiment: Kinase selectivity; type: biochemical
Text: as §1

p70S6K (h) = p70S6K (h) (Homo sapiens, UniProt P23443); experiment: Kinase selectivity; type: biochemical
Text: as §1

GSK3β (h) = GSK3β (h) (Homo sapiens, UniProt P49841); experiment: Kinase selectivity; type: biochemical
Text: as §1

ROCK-1 (h) = ROCK-1 (h) (Homo sapiens, UniProt Q13464); experiment: Kinase selectivity; type: biochemical
Text: as §1

Kv2.1 = target: T1, Kv2.1 (Homo sapiens, UniProt Q14721); experiment: FLIPR thallium influx assay, potassium sulphate stimulated CHO-Kv2.1 cells; type: cell-based; conditions: potassium sulphate stimulated CHO-Kv2.1, at 30 μM; read-out: inhibition of thallium flux
T1 construct: host or cells: CHO
Description: HEK-293 cells were transfected with human THIK-1, TREK-1, TWIK-2, or mouse THIK-1 cDNA cloned into pcDNA3.1, using either Fugene HD transfection reagent (Promega) or electroporation (MaxCyte STX instrument). Cells stably expressing the relevant genes were selected based on resistance to 500 μg/ml geneticin (Gibco). For human THIK-1 and TWIK-2 expressing cells, monoclonal lines were isolated by limited dilution cloning; mouse THIK-1 and human TREK-1 expressing cells were maintained as polyclonal pools. The HEK-293 pools and monoclones stably expressing the relevant genes were maintained in DMEM (Life Technologies), supplemented with 10% FCIII (HyClone, Fetal clone III) and 500 μg/ml geneticin. A CHO-Kv2.1 cell line was purchased from Millipore (accession NM_004975) and maintained in F12 (Life Technologies), supplemented with 10% FCSIII (Thermo Scientific) and 500 μg/ml geneticin (Life Technologies). […]
A fluorescence-based thallium influx assay (Molecular Devices potassium assay kit) was used to monitor channel activity. […] Using a fluorescent imaging plate reader (FLIPR) tetra plate reader, 15 μl thallium stimulus solution was added to the cell plate and the fluorescence signal recorded every second for 1 min (excitation: 470–495 nm, emission: 515–575 nm).

THIK-1 = target: T2, THIK-1 (Homo sapiens, UniProt Q9HB14); experiment: FLIPR thallium influx assay, HEK-hTHIK-1 cells; type: cell-based
T2 construct: expressed in transfected cells
T2 sequence (Q9HB14 1-408): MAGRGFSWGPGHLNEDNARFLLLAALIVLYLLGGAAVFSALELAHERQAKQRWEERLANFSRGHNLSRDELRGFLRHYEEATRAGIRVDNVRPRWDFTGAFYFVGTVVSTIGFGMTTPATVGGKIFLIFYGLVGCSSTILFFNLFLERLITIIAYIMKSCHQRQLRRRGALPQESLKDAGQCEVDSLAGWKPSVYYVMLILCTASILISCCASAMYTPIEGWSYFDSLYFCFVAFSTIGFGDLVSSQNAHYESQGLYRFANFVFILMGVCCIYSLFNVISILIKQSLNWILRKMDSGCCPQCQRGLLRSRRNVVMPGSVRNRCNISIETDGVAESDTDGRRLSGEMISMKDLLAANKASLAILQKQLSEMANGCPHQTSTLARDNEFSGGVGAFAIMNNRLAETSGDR
Description: HEK-293 cells were transfected with human THIK-1, TREK-1, TWIK-2, or mouse THIK-1 cDNA cloned into pcDNA3.1, using either Fugene HD transfection reagent (Promega) or electroporation (MaxCyte STX instrument). Cells stably expressing the relevant genes were selected based on resistance to 500 μg/ml geneticin (Gibco). For human THIK-1 and TWIK-2 expressing cells, monoclonal lines were isolated by limited dilution cloning; mouse THIK-1 and human TREK-1 expressing cells were maintained as polyclonal pools. The HEK-293 pools and monoclones stably expressing the relevant genes were maintained in DMEM (Life Technologies), supplemented with 10% FCIII (HyClone, Fetal clone III) and 500 μg/ml geneticin. A CHO-Kv2.1 cell line was purchased from Millipore (accession NM_004975) and maintained in F12 (Life Technologies), supplemented with 10% FCSIII (Thermo Scientific) and 500 μg/ml geneticin (Life Technologies). For thallium flux assays, banks of frozen cell aliquots were prepared the day prior to assay, cells were thawed into media and seeded into PDL coated 384-well plates (Corning) at 25,000 (human/mouse THIK-1, TREK-1) or 30,000 (TWIK-2) cells/well (25 μl/well). CHO-Kv2.1 cells were seeded into non-PDL coated plates (Corning) at 5000 cells/well. Plated cells were incubated overnight at 37 °C, 5% CO2 in a humidified atmosphere. For Q-Patch assays, cells were cultured for 7 days prior to assay, dissociated, and diluted to 1–2.5 million/ml in EX-CELL ACF serum free media containing HEPES (25 mM; Life Technologies), penicillin/streptomycin (100 U/ml, 100 μg/ml; Life Technologies) and a trypsin inhibitor (0.04 mg/ml).
A fluorescence-based thallium influx assay (Molecular Devices potassium assay kit) was used to monitor channel activity. In brief, component A was reconstituted in 17 ml of chloride-free assay buffer (130 mM sodium D-gluconate, 5 mM potassium D-gluconate, 2 mM calcium D-gluconate, 1 mM magnesium D-gluconate, 5 mM NaHCO3, 20 mM HEPES; pH adjusted to 7.4 with NaOH and filtered (0.45 μm filter)) and component C reconstituted in 30 μl of DMSO. Components A and C were combined, and probenecid was added (Life Technologies; final assay concentration (FAC) 4.75 mM for HEK cell lines and 2.47 mM for CHO-Kv2.1) to provide the final dye solution. Media was removed from the cell plates and replaced with dye (20 μl/well) and the plates were incubated at room temperature in the dark for 60 min. On the day of the assay, a diluted compound plate (3x FAC in 1.5% DMSO) was created. Control wells contained either DMSO vehicle (1.5%, 3x FAC) or tetrapentylammonium chloride (TPA; Sigma, 258962; 1.5 mM in 1.5% DMSO, 3x FAC). A 3x thallium stimulation plate was also prepared, to provide a FAC of either 1 mM (human THIK-1) or 3 mM (mouse THIK-1, TREK-1, TWIK-2) thallium sulphate (in assay buffer). For Kv2.1, the FAC of thallium sulphate was 2.6 mM and this was prepared in assay buffer containing potassium sulphate (Sigma P9458; FAC 23.3 mM). Following 60 min of dye loading, 10 μl from the 3x FAC compound plate was added into the cell plate, which was then incubated for 15 min at room temperature in the dark. Using a fluorescent imaging plate reader (FLIPR) tetra plate reader, 15 μl thallium stimulus solution was added to the cell plate and the fluorescence signal recorded every second for 1 min (excitation: 470–495 nm, emission: 515–575 nm).

Sequence of Lck (h) (P06239 whole entry): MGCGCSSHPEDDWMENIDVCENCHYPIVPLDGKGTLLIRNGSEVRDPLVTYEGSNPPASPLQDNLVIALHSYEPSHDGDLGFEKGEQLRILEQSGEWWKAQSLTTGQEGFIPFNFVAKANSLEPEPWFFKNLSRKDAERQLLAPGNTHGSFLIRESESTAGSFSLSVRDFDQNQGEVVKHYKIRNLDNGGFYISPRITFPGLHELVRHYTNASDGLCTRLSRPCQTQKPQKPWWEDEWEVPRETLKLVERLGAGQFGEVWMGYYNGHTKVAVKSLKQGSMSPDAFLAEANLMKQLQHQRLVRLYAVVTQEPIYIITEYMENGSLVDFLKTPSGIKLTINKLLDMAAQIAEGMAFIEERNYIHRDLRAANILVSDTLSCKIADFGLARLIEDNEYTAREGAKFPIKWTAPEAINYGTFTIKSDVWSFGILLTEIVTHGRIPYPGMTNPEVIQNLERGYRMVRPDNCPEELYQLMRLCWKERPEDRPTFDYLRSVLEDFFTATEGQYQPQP
Sequence of p70S6K (h) (P23443 whole entry): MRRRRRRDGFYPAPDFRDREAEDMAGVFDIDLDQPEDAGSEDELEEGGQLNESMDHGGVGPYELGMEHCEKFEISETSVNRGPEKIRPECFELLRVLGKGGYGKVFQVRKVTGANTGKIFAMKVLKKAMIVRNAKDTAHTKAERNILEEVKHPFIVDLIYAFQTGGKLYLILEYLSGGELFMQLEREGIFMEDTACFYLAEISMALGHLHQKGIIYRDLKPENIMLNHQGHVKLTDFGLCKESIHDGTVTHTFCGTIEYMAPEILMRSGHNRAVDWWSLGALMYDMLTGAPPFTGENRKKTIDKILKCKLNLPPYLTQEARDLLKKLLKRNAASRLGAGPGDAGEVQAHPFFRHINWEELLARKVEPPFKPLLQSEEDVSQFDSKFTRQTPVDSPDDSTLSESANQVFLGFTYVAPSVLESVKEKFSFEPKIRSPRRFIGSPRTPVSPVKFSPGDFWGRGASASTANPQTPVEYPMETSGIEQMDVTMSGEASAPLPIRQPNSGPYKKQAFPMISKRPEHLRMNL
T1 sequence (Q14721 whole entry): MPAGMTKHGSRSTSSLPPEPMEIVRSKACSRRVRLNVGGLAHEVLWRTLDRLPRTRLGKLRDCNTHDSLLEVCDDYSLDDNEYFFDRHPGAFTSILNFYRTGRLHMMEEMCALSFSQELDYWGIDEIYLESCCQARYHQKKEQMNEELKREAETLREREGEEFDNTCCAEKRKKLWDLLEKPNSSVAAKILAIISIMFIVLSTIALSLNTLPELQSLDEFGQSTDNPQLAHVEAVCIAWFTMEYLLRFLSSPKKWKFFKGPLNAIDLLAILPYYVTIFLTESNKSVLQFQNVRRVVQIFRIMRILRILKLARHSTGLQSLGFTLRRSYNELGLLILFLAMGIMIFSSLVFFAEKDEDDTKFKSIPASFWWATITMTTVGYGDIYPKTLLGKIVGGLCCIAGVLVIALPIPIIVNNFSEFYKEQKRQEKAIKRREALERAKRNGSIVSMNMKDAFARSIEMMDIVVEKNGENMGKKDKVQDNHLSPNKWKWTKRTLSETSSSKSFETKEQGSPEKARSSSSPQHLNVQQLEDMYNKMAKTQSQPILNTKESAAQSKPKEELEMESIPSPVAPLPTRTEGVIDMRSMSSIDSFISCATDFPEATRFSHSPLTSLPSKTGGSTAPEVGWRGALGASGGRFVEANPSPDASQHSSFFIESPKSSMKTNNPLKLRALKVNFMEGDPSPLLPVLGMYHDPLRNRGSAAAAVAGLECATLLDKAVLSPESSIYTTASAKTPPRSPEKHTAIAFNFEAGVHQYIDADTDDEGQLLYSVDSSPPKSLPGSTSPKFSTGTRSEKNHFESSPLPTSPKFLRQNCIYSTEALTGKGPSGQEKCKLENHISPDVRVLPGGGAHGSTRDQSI
Sequence of ROCK-2 (h) (O75116 whole entry): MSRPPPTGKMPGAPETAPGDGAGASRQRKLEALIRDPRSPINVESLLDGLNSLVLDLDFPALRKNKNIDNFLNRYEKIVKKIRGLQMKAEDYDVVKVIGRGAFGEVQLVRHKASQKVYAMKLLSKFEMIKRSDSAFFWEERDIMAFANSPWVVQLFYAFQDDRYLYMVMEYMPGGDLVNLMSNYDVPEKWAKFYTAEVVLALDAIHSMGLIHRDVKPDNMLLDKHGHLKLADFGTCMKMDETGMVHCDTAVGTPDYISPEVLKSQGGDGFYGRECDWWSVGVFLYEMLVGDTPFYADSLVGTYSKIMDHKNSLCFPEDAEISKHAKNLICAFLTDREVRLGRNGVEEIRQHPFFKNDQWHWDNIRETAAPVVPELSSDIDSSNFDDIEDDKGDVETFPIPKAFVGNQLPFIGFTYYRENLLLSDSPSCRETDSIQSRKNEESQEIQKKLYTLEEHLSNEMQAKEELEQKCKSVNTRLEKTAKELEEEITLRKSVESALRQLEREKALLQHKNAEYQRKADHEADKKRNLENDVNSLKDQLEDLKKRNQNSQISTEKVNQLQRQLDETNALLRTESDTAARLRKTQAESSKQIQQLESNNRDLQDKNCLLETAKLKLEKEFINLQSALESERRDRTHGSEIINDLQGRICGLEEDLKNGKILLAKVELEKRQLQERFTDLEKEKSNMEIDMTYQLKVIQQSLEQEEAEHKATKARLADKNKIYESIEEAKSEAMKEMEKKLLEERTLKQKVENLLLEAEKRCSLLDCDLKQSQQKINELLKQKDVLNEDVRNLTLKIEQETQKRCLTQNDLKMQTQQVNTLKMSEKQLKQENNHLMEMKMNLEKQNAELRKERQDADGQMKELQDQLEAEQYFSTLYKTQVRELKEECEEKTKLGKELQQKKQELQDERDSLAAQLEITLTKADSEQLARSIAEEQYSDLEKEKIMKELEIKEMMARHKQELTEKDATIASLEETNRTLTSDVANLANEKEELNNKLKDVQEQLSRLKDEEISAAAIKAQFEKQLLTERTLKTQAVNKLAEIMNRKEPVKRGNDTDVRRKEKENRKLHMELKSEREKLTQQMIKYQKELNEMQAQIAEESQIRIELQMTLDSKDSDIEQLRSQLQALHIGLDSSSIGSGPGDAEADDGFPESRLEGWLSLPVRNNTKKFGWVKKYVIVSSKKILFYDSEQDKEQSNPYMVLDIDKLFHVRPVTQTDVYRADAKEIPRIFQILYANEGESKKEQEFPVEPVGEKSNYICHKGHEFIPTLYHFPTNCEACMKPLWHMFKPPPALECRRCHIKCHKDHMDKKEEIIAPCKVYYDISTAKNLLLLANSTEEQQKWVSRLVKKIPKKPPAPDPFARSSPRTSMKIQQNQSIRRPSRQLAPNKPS
Sequence of ROCK-1 (h) (Q13464 whole entry): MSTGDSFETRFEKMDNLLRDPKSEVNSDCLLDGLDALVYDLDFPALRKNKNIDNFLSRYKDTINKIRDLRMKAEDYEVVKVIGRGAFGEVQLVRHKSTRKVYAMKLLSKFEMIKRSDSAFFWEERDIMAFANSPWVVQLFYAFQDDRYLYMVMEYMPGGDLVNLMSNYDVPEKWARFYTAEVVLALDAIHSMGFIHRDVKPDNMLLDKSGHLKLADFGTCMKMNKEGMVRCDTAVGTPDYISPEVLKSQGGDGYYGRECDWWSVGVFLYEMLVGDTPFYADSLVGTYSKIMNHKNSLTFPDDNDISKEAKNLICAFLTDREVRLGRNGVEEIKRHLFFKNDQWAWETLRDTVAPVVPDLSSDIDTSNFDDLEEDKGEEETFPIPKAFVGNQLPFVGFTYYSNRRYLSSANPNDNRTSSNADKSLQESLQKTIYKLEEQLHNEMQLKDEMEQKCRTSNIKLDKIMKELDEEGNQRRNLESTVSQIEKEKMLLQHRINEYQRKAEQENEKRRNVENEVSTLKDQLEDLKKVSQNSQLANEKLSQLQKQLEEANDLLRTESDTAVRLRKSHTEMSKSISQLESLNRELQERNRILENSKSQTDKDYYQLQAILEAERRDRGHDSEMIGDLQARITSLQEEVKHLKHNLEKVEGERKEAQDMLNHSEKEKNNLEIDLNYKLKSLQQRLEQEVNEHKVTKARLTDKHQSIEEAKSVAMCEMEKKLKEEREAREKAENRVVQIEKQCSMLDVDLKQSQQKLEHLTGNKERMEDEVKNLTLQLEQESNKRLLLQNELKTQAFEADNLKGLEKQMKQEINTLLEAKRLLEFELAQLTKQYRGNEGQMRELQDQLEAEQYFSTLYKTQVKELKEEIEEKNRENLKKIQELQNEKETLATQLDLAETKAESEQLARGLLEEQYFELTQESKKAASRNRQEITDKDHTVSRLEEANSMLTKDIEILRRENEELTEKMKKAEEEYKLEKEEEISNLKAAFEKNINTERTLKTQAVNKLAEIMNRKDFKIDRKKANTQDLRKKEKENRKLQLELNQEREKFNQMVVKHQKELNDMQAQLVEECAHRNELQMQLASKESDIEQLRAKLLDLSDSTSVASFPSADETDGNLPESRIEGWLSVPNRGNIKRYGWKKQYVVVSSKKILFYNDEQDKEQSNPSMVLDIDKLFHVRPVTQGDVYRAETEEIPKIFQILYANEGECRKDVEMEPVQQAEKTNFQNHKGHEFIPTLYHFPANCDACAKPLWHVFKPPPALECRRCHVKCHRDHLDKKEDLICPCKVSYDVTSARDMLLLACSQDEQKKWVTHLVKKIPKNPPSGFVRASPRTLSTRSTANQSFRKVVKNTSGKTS
Sequence of GSK3β (h) (P49841 whole entry): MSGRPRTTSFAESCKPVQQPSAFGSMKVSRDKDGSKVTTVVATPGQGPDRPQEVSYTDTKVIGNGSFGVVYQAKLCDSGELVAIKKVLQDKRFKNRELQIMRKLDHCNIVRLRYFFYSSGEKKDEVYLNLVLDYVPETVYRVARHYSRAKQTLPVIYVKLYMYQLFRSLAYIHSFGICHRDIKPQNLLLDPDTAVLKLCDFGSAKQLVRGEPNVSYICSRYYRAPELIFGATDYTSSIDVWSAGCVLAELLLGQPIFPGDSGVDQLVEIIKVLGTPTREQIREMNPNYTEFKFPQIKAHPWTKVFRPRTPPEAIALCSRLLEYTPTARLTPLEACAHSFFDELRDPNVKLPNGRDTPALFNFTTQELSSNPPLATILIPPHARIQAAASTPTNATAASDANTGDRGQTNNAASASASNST

## Nc1nonc1-c1nc2ccccc2n1Cc1ccncc1 [C101248]
Syk (h)
  IC50: > 10 µM
PKA (h)
  IC50: > 10 µM
ROCK-2 (h)
  IC50: > 10 µM
Lck (h)
  IC50: > 10 µM
p70S6K (h)
  IC50: > 10 µM
GSK3β (h)
  IC50: > 10 µM
ROCK-1 (h)
  IC50: > 10 µM
Kv2.1
  inhibition at 30 µM: -3%
THIK-1; HEK-hTHIK-1, normalised to TPA controls, read-out: IC50, inhibition of THIK-1 constitutive activity (thallium influx)
  IC50: 0.046 µM
THIK-1; HEK-hTHIK-1, thallium influx, normalised to TPA controls
  maximum inhibition: 102%
THIK-1; human THIK-1, read-out: IC50, inhibition of human THIK-1 (abstract)
  IC50: ~0.05 µM
THIK-1; human and mouse THIK-1 constitutive activity, thallium influx and Q-patch
  potency relative to tetrapenthylammonium chloride (TPA): 100 times
